Here are results for 41 compounds from patent US9925263B2, “Liquid pharmaceutical formulations for injection comprising procaine and uses thereof” (EAGLE BIOLOGICS, INC., priority 2013, dated 2018).

For one series, the system named is biosimilar AVASTIN®. The series is described as follows: Viscosity of aqueous solutions of biosimilar AVASTIN® with viscosity-lowering agents. The class given is physicochemical. As for the experimental part:
(unless otherwise indicated).
The protein was formulated to contain either 0.25 M phosphate buffer or 0.25 M CSAL.
Subsequently, the appropriate amount of viscosity-lowering agent was added to result in a final viscosity-lowering agent concentration of 0.15-0.35 M upon reconstitution.
The viscosity-lowering agent(s) were added in an amount sufficient to give concentration upon reconstitution as specified below. In cases of combinations of agents, the concentration of each component is 0.15 M. The protein solutions were then freeze-dried.

A further series has as its system biosimilar ERBITUX®. Put plainly: Viscosity of aqueous solutions of biosimilar ERBITUX® with viscosity-lowering agents. The following applies: for Fold Reduction: vs phosphate buffer.
The test system of the next series is biosimilar RITUXAN®. The series is described as follows: Viscosity of aqueous solutions of biosimilar RITUXAN® with viscosity-lowering agents.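 Note: absolute viscosity of aqueous antibody solutions determined by microfluidic viscometry (mVROC chip, 50 micron channel) at several flow rates after 5 min equilibration, mean of at least three readings.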 To be noted: […] agent, 25° C.
[1] abbreviates: 222 ± 5 mg/mL mAb, pH 7.0, 0.25M agent, 25° C.
[2] abbreviates: 225 ± 5 mg/mL mAb, pH 7.0, 0.25M agent, 20° C.
Setting [3] is: 225 ± 5 mg/mL mAb, pH 7.0, 0.25M agent, 25° C.
The mark [4] stands for this setting: 225 ± 5 mg/mL mAb, pH 7.0, 0.25M agent, 30° C.
[5] abbreviates: 200 ± 5 mg/mL mAb, pH 7.0, 25° C., [Salt] 0.25 M of anion, C & P viscometer.
Setting [6] is: 200 ± 5 mg/mL mAb, pH 7.0, 25° C., [Salt] […] of anion, C & P viscometer.
The mark [7] stands for this setting: 229 mg/mL mAb, […] agent, pH 7.0, 25° C., microfluidic.
[8] abbreviates: 221 mg/mL mAb, […] agent, pH 7.0, 25° C., microfluidic.
The mark [9] stands for this setting: 230 mg/mL mAb, agent […], 25° C.
Where [10] appears, read: 228 ± 5 mg/mL mAb, agent 0.25 M, 25° C., pH 7.0.
The mark [11] stands for this setting: 200 ± 5 mg/mL mAb, pH 7.0, 25° C., [Salt] 0.35 M of anion, C & P viscometer.

Counter-ions that a name gives are not always drawn.

`Cc1nccn1CCCN.Cl.Cl` [APMI*2HCl, 1-(3-aminopropyl)-2-methyl-1H-imidazole dihydrochloride]: the “Viscosity-lowering effect as a function of agent concentration” value in the series on biosimilar AVASTIN® (0.10 vs 0.25 M APMI*2HCl, FIG. 7) is “viscosity-lowering effect was increased”.

`C[C@H]1[C@H](NC(=O)/C(=N\OC(C)(C)C(=O)O)c2csc(N)n2)C(=O)N1S(=O)(=O)O` [Aztreonam, reference compound] came in with a Viscosity in the series with biosimilar ERBITUX® (179 mg/mL mAb, 0.02M agent, 25° C.) of 256 ± 4 cP. For `NCCCC[C@H](N)C(=O)O.O=S(=O)(O)c1ccccc1` [BSAL, benzenesulfonic acid lysine], the Viscosity with biosimilar AVASTIN® (230 ± 5 mg/mL mAb, pH 7.0, […], 20° C.) stood at 395 ± 3 cP; in the series on biosimilar AVASTIN® (230 ± 5 mg/mL mAb, pH 7.0, […], 25° C.), 227 ± 5 cP; in the series with biosimilar ERBITUX® (setting [1]) it was 126 ± 1 cP; in the series with biosimilar ERBITUX® (setting [2]), 193 ± 0 cP; in the series on biosimilar ERBITUX® (setting [3]), 126 ± 1 cP; in the series with biosimilar ERBITUX® (setting [4]), 89.8 ± 0.8 cP. Consider `N=C(N)NCCC[C@H](N)C(=O)O.O=C(O)c1ccccc1` [Benzoic acid arginine], for which the Viscosity in the series with biosimilar AVASTIN® (setting [5]) amounted to 51.4 ± 0.5 cP; in the series with biosimilar AVASTIN® (setting [6]), 52.2 ± 0.5 cP. In the case of `CC1(C)C2CCC1(CS(=O)(=O)O)C(=O)C2.OCCN(CCO)CCO` (stereo not shown) [CSA Triethanolamine], the Viscosity in the series with biosimilar AVASTIN® (238 mg/mL mAb, agent […], 25° C.) is on record as 144 ± 1 cP. With `CC1(C)C2CCC1(CS(=O)(=O)O)C(=O)C2.N=C(N)NOCC[C@H](N)C(=O)O` (stereo not shown) [CSA canavanine], the Viscosity in the series with biosimilar AVASTIN® (setting [5]) came to 75.6 ± 3.0 cP; with biosimilar AVASTIN® (setting [6]), 60.5 ± 0.6 cP. In the case of `CC1(C)C2CCC1(CS(=O)(=O)O)C(=O)C2.Nc1ccncc1` (stereo not shown) [CSA-4-aminopyridine], the Viscosity in the series with biosimilar AVASTIN® (setting [7]) is reported as 86.4 ± 1.1 cP; in the series with biosimilar RITUXAN® (195 mg/mL mAb) it was 47.0 ± 1.4 cP; in the series on biosimilar RITUXAN® (233 mg/mL mAb) it was 66.5 ± 0.8 cP. `Cc1nnc(SCC2=C(C(=O)O)N3C(=O)[C@@H](NC(=O)Cn4cnnn4)[C@H]3SC2)s1` [Cefazolin, reference compound]: the Viscosity with biosimilar AVASTIN® (setting [7]) amounted to 60.6 ± 1 cP; in the series on biosimilar RITUXAN® (206 mg/mL mAb) it was 65.1 ± 1.8 cP. In turn, `CO[C@@]1(NC(=O)Cc2cccs2)C(=O)N2C(C(=O)O)=C(COC(N)=O)CS[C@@H]21` [Cefoxitin sodium salt, reference compound] returned a Viscosity in the series with biosimilar ERBITUX® (194 mg/mL mAb, […] agent, 25° C.) of 166 ± 8 cP.

As to `Nc1ccn(C[C@@H](CO)OCP(=O)(O)O)c(=O)n1` [Cidofovir hydrate, reference compound], the Viscosity in the series with biosimilar AVASTIN® (210 mg/mL mAb, agent 0.02M, 25° C.) is on record as 121 ± 2 cP; in the series on biosimilar ERBITUX® (189 mg/mL mAb, 0.02M agent, 25° C.) it was 284 ± 5 cP. In the series with biosimilar ERBITUX® (188 mg/mL mAb, […] agent, 25° C.), `O=C1NC(c2ccccc2)(c2ccccc2)C(=O)N1COP(=O)(O)O` [Fosphenytoin disodium salt, reference compound] registered a Viscosity of 119 ± 2 cP. Turning to `NC(CO)(CO)CO.O=C[C@H](O)[C@@H](O)[C@H](O)[C@H](O)C(=O)O` [Glucuronic acid-tris], the Viscosity with biosimilar AVASTIN® (setting [8]) turned out to be 151 ± 5 cP; in the series with biosimilar AVASTIN® (221 mg/mL mAb, […] agent, pH 7.0, 25° C., microfluidic, listed as Glucuronic acid-Tris), 151 ± 5.0 cP; with biosimilar RITUXAN® (207 mg/mL mAb), 149 ± 13 cP.

Take `CCN(CC)CC(=O)Nc1c(C)cccc1C` [Lidocaine HCl, reference compound]: the Viscosity in the series on biosimilar AVASTIN® (218 mg/mL mAb, agent […], 25° C.) is reported as 147 ± 15 cP; in the series with biosimilar AVASTIN® (237 mg/mL mAb, agent […], 25° C.), 97.3 ± 1.8 cP; in the series on biosimilar ERBITUX® (223 mg/mL mAb, […] agent, 25° C.) it was 33.8 ± 0.4 cP.

As for `NCCCC[C@H](N)C(=O)O` [Lysine•HCl, reference compound], the Viscosity in the series on biosimilar AVASTIN® (setting [5]) worked out at 137 ± 2 cP. Further, in the series on biosimilar ERBITUX® (setting [1]), the Viscosity was 128 ± 2 cP and the “Fold Reduction” value came out at 8.8 fold. Take `CS(=O)(=O)O.N=C(N)NCCC[C@H](N)C(=O)O` [MSA arginine]: the Viscosity with biosimilar AVASTIN® (setting [5]) was found to be 93.1 ± 0.9 cP. On to `Cc1cccc(C)c1NC(=O)C1CCCCN1C` (stereo not shown) [Mepivacaine HCl, reference compound], for which the Viscosity in the series on biosimilar AVASTIN® (223 mg/mL mAb, agent […], 25° C.) turned out to be 129 ± 3 cP; with biosimilar RITUXAN® (185 mg/mL mAb), 46.8 ± 0.6 cP. Regarding `CCN(CC)CCNC(=O)c1cc(Cl)c(N)cc1OC` [Metoclopramide HCl, reference compound], the Viscosity in the series on biosimilar AVASTIN® (setting [9]) is reported as 64.4 ± 1.6 cP; in the series on biosimilar RITUXAN® (194 mg/mL mAb), 39.3 ± 0.4 cP. In turn, `COc1c(N2C[C@@H]3CCCN[C@@H]3C2)c(F)cc2c(=O)c(C(=O)O)cn(C3CC3)c12` [Moxifloxacin HCl, reference compound] came in with a Viscosity with biosimilar ERBITUX® (186 mg/mL mAb, […] agent, 25° C.) of 66.7 ± 1.0 cP. For the compound `Cl.[Cl-].c1cc[n+](-c2ccncc2)cc1` [N-(4-Pyridiyl)pyridinium Cl HCl], the Viscosity in the series with biosimilar AVASTIN® (setting [8]) came to 68.5 ± 1.1 cP. As to `[Cl-].[Na+]` [NaCl, reference compound], the Viscosity in the series with biosimilar AVASTIN® (setting [5]) was 121 ± 8 cP. As for `NC(=O)c1cccnc1` [Nicotinamide], the Viscosity with biosimilar ERBITUX® (232 mg/mL mAb, […] agent, 25° C.) is listed as 292 ± 10 cP. Turning to `CNC[C@H](O)c1cccc(O)c1` [Phenylephrine HCl, reference compound], the Viscosity with biosimilar AVASTIN® (201 mg/mL mAb, agent […], 25° C.) stood at 108 ± 1 cP; with biosimilar ERBITUX® (183 mg/mL mAb, […] agent, 25° C.), 54.1 ± 2.9 cP. For `CCN1CCN(C(=O)N[C@@H](C(=O)N[C@@H]2C(=O)N3[C@@H]2SC(C)(C)[C@@H]3C(=O)O)c2ccccc2)C(=O)C1=O` [Piperacillin sodium salt, reference compound], the Viscosity worked out at 197 ± 5 cP with biosimilar AVASTIN® (206 mg/mL mAb, agent […], 25° C.) and 127 ± 2 cP with biosimilar RITUXAN® (194 mg/mL mAb).

As for `Cc1ncc(CO)c(CO)c1O` [Pyridoxine], the Viscosity with biosimilar AVASTIN® (227 mg/mL mAb, agent […], 25° C.) is 107 ± 0 cP. With `ClC=CC[N+]12CN3CN(CN(C3)C1)C2.[Cl-]` [Quaternium 15], the Viscosity with biosimilar RITUXAN® (221 mg/mL mAb) is on record as 135 ± 5 cP. In the case of `Cc1cc2nc3c(=O)[nH]c(=O)nc-3n(C[C@H](O)[C@H](O)[C@H](O)COP(=O)([O-])O)c2cc1C.[Na+]` [Riboflavin-5-phosphate], the Viscosity in the series on biosimilar AVASTIN® (225 mg/mL mAb, agent […], 25° C.) is recorded as 131 ± 4 cP; in the series with biosimilar ERBITUX® (237 mg/mL mAb, 0.10M agent, 25° C.), 492 ± 9 cP.

As for `OC[C@H]1O[C@H](O[C@]2(CCl)O[C@H](CCl)[C@@H](O)[C@@H]2O)[C@H](O)[C@@H](O)[C@H]1Cl` [Sucralose], the Viscosity came to 147 ± 4 cP with biosimilar AVASTIN® (setting [9]) and 111 ± 8 cP with biosimilar RITUXAN® (234 mg/mL mAb). With `CC(=O)[N-]S(=O)(=O)c1ccc(N)cc1.[Na+]` [Sulfacetamide-Na, reference compound], the Viscosity with biosimilar AVASTIN® (214 mg/mL mAb, agent […], 25° C.) was 113 ± 1 cP. For the compound `CNS(=O)(=O)Cc1ccc2[nH]cc(CCN(C)C)c2c1` [Sumatriptan Succinate, reference compound], the Viscosity in the series with biosimilar AVASTIN® (212 mg/mL mAb, agent 0.25M, 25° C.) came out at 93.2 ± 2.7 cP. For “CSA 1-(3-aminopropyl)-2-methyl-1H-imidazole [CSAAPMI-2HCl]”, the Viscosity in the series on biosimilar AVASTIN® (210 mg/mL mAb, 0.25 M agent, 25° C., pH 7.0) amounted to 40.9 ± 0.5 cP; in the series with biosimilar AVASTIN® (setting [10]), 71.8 ± 3.2 cP. On to CSA betaine, for which the Viscosity with biosimilar AVASTIN® (setting [5]) came to 66.0 ± 0.7 cP. Still for that read-out and setting: for CSA carnitine the value was 72.4 ± 1.7 cP.

CSA dimethylpiperazine: the Viscosity with biosimilar AVASTIN® (setting [5]) was found to be 47.4 ± 1.3 cP; in the series with biosimilar AVASTIN® (setting [11]) it was 51.7 ± 0.9 cP. Consider CSAthiamine-2NaCl, for which, in the series with biosimilar AVASTIN® (228 ± 5 mg/mL mAb, agent […], 25° C., pH 7.0), the Viscosity was found to be 83.7 ± 2.2 cP. For the same compound, the Viscosity reduction result in the series with biosimilar AVASTIN® (~230 mg/mL mAb, vs PB, Table 12) is “approximately 5 fold”. As for Chlorotheophylline arginine, the Viscosity in the series on biosimilar AVASTIN® (setting [5]) was found to be 104.5 ± 6.5 cP. As to Ethandisulfonate diarginine, the values for the Viscosity in the series on biosimilar AVASTIN® (setting [5]) and in the series on biosimilar AVASTIN® (setting [6]) were 105 ± 4 cP and 77.1 ± 0.3 cP, respectively. For the compound Sulfosalicylic acid dilysine, the Viscosity with biosimilar AVASTIN® (setting [10]) was 73.4 ± 0.4 cP. Take Toluenesulfonic acid arginine: the Viscosity in the series on biosimilar AVASTIN® (setting [5]) is recorded as 159 ± 5 cP. As to Toluenesulfonic acid lysine, the Viscosity with biosimilar AVASTIN® (setting [5]) was determined as 118 ± 1 cP. diCSA cadaverine: the Viscosity in the series on biosimilar AVASTIN® (setting [5]) was determined as 85.5 ± 5.2 cP; in the series with biosimilar AVASTIN® (setting [11]), 65.6 ± 1.6 cP. As for “naphthalenesulfonic acid arginine [NSAA]”, the Viscosity in the series on biosimilar ERBITUX® (setting [1]) worked out at 69.4 ± 0.6 cP; with biosimilar ERBITUX® (setting [2]), 103 ± 0 cP; in the series with biosimilar ERBITUX® (setting [3]) it was 69.4 ± 0.6 cP; with biosimilar ERBITUX® (setting [4]), 60.9 ± 4.3 cP. Besides, in the series with biosimilar ERBITUX® (setting [1]), the “Fold Reduction” value came out at 16.3 fold.
